# Measurements taken from patent publication US11439642B2 (Adverio Pharma GmbH, priority 2010, dated 2022).
# Target: T1, recombinant guanylate cyclase reporter cell line (Rattus norvegicus, UniProt P19686+P20595)
# T1 construct: expressed in transfected cells
# T1 sequence (P20595 1-619): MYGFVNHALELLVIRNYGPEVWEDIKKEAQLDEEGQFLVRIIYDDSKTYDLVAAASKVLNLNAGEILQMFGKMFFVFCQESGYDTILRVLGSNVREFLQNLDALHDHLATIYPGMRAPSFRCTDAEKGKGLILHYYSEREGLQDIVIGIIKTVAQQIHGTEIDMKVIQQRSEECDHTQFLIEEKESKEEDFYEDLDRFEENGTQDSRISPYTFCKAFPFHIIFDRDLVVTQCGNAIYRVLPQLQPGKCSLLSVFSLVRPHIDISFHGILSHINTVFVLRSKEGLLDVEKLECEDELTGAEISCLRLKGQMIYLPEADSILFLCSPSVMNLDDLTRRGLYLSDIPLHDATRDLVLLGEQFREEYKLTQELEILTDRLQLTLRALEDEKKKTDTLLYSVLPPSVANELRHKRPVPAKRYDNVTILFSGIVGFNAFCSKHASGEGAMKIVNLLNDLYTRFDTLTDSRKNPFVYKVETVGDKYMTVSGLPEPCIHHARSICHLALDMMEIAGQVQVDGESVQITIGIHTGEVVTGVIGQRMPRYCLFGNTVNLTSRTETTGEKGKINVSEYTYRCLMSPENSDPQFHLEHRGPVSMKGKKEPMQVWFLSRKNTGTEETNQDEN
# T1 sequence (P19686 1-690): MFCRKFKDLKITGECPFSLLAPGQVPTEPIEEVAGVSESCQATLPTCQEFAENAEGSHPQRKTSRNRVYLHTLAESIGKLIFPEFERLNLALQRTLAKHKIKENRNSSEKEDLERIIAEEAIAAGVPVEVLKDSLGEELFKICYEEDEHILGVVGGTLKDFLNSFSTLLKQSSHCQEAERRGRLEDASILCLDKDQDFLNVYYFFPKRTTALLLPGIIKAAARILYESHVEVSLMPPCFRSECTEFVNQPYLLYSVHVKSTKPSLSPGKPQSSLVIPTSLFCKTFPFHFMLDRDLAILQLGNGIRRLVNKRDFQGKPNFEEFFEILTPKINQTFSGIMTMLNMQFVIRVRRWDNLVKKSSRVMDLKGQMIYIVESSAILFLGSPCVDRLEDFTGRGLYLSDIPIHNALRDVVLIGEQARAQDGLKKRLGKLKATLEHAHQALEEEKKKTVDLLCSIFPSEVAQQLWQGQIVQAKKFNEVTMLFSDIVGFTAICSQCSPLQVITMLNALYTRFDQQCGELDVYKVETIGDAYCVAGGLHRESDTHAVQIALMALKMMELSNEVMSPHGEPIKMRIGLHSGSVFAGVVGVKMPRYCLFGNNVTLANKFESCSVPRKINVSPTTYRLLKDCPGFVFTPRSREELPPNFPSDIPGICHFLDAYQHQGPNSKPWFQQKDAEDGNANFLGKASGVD
# Test: Effect on a recombinant guanylate cyclase reporter cell line
# Format: cell-based
# Procedure: The cellular activity of the compounds according to the invention is determined using a recombinant guanylate cyclase reporter cell line, as described in F. Wunder et al., Anal. Biochem. 339, 104-112 (2005).
row,SMILES,MEC (minimum effective concentration)
1,COC(=O)N(C)c1c(N)nc(-c2nn(Cc3ccccc3F)c3ncc(F)cc23)nc1N [Example 2],0.1 µM
2,"COC(=O)N(CC(F)(F)F)c1c(N)nc(-c2nn(Cc3ccccc3F)c3ncc(F)cc23)nc1N [Example 3, Methyl {4,6-diamino-2-[5-fluoro-1-(2-fluorobenzyl)-1H-pyrazolo[3,4-b]pyridin-3-yl]pyrimidin-5-yl}(2,2,2-trifluoroethyl)carbamate]",0.03 µM
3,"COC(=O)Nc1c(N)nc(-c2nn(Cc3ccccc3F)c3ncc(F)cc23)nc1N [Example 1, Methyl {4,6-diamino-2-[5-fluoro-1-(2-fluorobenzyl)-1H-pyrazolo[3,4-b]pyridin-3-yl]pyrimidin-5-yl}carbamate]",0.3 µM
